Laboratory results taken from patent US20210401863A1, “TREATMENT AND PREVENTION OF NEISSERIA GONORRHOEAE INFECTION USING CMP-ACTIVATED NONULOSONATE ANALOG COMPOUNDS” (NATIONAL RESEARCH COUNCIL OF CANADA, priority 2015, published 2021).
Where two headings read alike, the source gives them in different places.

What was measured:
[1] = target: T1, gonococcal LOS sialyltransferase (Lst) (Neisseria gonorrhoeae, UniProt P72074); assay: mAb 3F11 binding by flow cytometry (incorporation of NulO on LNnT LOS by Lst); format: cell-based, N. gonorrhoeae F62 ΔlgtD; settings: F62 ΔlgtD grown in media with 20 μg/mL CMP-NulO
T1 construct: CMP-KDN served as a substrate for gonococcal Lst in the context of live bacteria; endogenous in cells; host or cells: N. gonorrhoeae F62 ΔlgtD (live bacteria)
T1 sequence (P72074 whole entry): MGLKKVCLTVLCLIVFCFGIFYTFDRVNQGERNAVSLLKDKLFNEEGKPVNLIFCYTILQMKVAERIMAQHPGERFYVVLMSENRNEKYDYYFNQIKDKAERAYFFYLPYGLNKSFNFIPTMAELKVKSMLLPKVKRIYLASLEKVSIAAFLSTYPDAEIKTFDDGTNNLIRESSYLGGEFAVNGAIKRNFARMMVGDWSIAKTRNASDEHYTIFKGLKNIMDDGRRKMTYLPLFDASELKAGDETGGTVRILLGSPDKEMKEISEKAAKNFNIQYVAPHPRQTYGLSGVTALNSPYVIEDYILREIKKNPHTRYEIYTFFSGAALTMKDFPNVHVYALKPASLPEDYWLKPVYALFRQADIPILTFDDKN
Protocol: FIG. 1: CMP-KDN serves as a substrate for gonococcal LOS and incorporation of KDN on gonococcal lacto-N-neotetraose LOS enhances factor H (FH) binding. A. Incorporation of KDN by gonococci. Gonococcal strain F62 ΔlgtD (expresses lacto-N-neotetraose (LNnT) from Hepl) was grown in media containing CMP-KDN (20 μg/mL) and binding of mAb 3F11 was measured by flow cytometry. mAb 3F11 binds only to […] LNnT; substitution of the terminal Gal of LNnT, for example with a NulO, will decrease mAb 3F11 binding. Approximately 5×10^7 bacteria were incubated with mAb 3F11 tissue culture supernatants for 15 minutes at 37° C. Binding of mAb 3F11 was disclosed with anti-mouse IgM FITC (Sigma; dilution of 1:100). Bacteria grown in CMP-Neu5Ac or in media alone were used as positive and negative controls for sialylation, respectively. A representative histogram is shown in the upper panel. […] B. Factor H (FH) binding to gonococci grown in CMP-KDN. Approximately 5×10^7 bacteria grown in media alone (no sialic acid), media plus CMP-Neu5Ac (20 μg/mL; positive control for FH binding) or in media containing CMP-KDN (20 μg/mL) were incubated with purified human FH (20 μg/mL) in HBSS** for 15 minutes at 37° C. and bound FH was detected with affinity isolated goat anti-human FH followed by anti-goat IgG FITC (Sigma; 1:100 dilution). A representative histogram is shown in the upper panel.
FIG. 3: CMP-KDN7N3 serves as a substrate for gonococcal Lst resulting in incorporation of KDN7N3 on gonococcal lacto-N-neotetraose (LNnT) LOS—Incorporation of KDN7N3 by gonococci. Gonococcal strain F62ΔlgtD (expresses lacto-N-neotetraose (LNnT) from Hepl) was grown in media containing CMP-KDN7N3 (20 μg/mL) and binding of mAb 3F11 was measured by flow cytometry. mAb 3F11 binds only to […] LNnT; substitution of the terminal Gal of LNnT, for example with a NulO, will decrease mAb 3F11 binding. Approximately 5×10^7 bacteria were incubated with mAb 3F11 tissue culture supernatants for 15 minutes at 37° C. Binding of mAb 3F11 was disclosed with anti-mouse IgM FITC (Sigma; dilution of 1:100). […]

N. gonorrhoeae F62 ΔlgtD [2] = format: cell-based, Neisseria gonorrhoeae; settings: for % survival in 3.3% serum / % survival in 10% serum: Table 5
Protocol: Generally, bacteria (F62 ΔlgtD) grown overnight on chocolate agar plates were suspended in gonococcal liquid media supplemented with IsoVitaleX [29] that contained specified concentrations of the CMP-nonulosonate. Bacteria were then incubated at 37° C. for the period specified in each experiment.
Serum bactericidal assays were performed as follows, similar to methods outlined in [32,33] and in U.S. Pat. No. 9,765,106. Bacteria were harvested from an overnight culture on chocolate agar plates and ˜10^5 CFU of Ng were grown in liquid media containing the concentrations of CMP-NuIO as specified for each experiment. Bacteria were diluted in Morse A and ˜2000 CFU of Ng F62 ΔlgtD were incubated with NHS (concentration specified for each experiment). The final reaction volumes were maintained at 150 μL. Aliquots of 25 μL of reaction mixtures were plated onto chocolate agar in duplicate at the beginning of the assay (t0) and again after incubation at 37° C. for 30 minutes (t30). Survival was calculated as the number of viable colonies at t30 relative to t0.
Addition of a terminal Neu5Ac residue to the LNnT LOS of N. gonorrhoeae that occurs in vivo or following the addition of CMP-Neu5Ac to growth media results in resistance to complement-dependent killing. We next determined the effects of LNnT incorporation of KDN on the ability of N. gonorrhoeae F62 ΔlgtD to resist complement-dependent killing by normal human sera at concentrations of 3.3% or 10%. Bacteria were grown either in media alone, or media supplemented with 20 μg/mL of CMP-Neu5Ac or CMP-KDN. In addition, CMP-NulO competition experiments were also performed with CMP-Neu5Ac, CMP-Leg5Ac7Ac and CMP-KDN at CMP-NulO concentrations of either 20 μg/mL or 2 μg/mL as indicated, where the second CMP-NulO was added 15 minutes after the first (Table 1 below). To note, these CMP-NulO competition experiments are a method to examine the ability of select CMP-NulOs to counter the enhanced serum resistance due to CMP-Neu5Ac addition, providing information on their therapeutic potential (as any potential therapeutic will be required to compete with CMP-Neu5Ac in vivo).

purified human FH = settings: from U.S. Pat. No. 9,765,106 / Ser. No. 14/627,396; cited from earlier work
N. gonorrhoeae F62 ΔlgtD [3] = settings: from U.S. patent application Ser. No. 14/627,396; cited from earlier work
[4] = target: T1, gonococcal LOS sialyltransferase (Lst); settings: from U.S. patent application Ser. No. 14/627,396; cited from earlier work
N. gonorrhoeae H041 = assay: BALB/c mouse vaginal colonization model; format: in vivo; settings: 10 μg intravaginally daily; Premarin treated BALB/c mice
Protocol: FIG. 2: Female BALB/c mice 5-6 weeks of age (Jackson Laboratories) in the diestrus phase of the estrous cycle were started on treatment (that day) with 0.5 mg of Premarin (Pfizer) given subcutaneously on each of three days; −2, 0 and +2 days (before, the day of and after inoculation) to prolong the estrus phase of the cycle and promote susceptibility to N. gonorrhoeae infection. Antibiotics (vancomycin, colistin, neomycin, trimethoprim and streptomycin) that were ineffective against N. gonorrhoeae were also used to reduce competitive microflora. Mice (n=40) were then infected with 10^6 CFU of strain H041. Three groups of mice (n=10/group) were treated with 10 μg intravaginally daily (first dose was administered 30 minutes before the introduction of bacteria) with one of the following CMP-NulOs in normal saline: CMP-Leg5Ac7Ac, CMP-Neu5Ac9Az or CMP-KDN. A fourth group (n=10) was given saline (vehicle control). Vaginal swabs were obtained daily from each animal, serially diluted and plated on chocolate agar containing vancomycin, colistin, neomycin, trimethoprim and streptomycin (VCNTS) to quantify bacterial loads. A. Median time to clearance was estimated using Kaplan-Meier survival curves; the times to clearance were compared between groups using a log-rank test. P<0.0001 for the control versus each of the treatment groups. Time to clearance between each of the treatment groups was similar (P>0.05). B. The mean area under the curve (log10 CFU vs. time) was computed for each mouse to estimate the bacterial burden over time (cumulative infection); the means under the curves were compared between groups using the Kruskal-Wallis nonparametric rank sum test because distributions were skewed or kurtotic. Groups were compared using Dunn's multiple comparison test. ****, P<0.0001; **, P<0.01; *, P<0.05. The differences among the groups that received CMP-NulOs were not significant.
The mouse model experiments and statistical analysis were conducted as described in the art and in U.S. Pat. No. 9,765,106. […]

Row | SMILES | binding of mAb 3F11 (use as substrate by gonococcal Lst) [1] | serum sensitivity (in words) (N. gonorrhoeae F62 ΔlgtD [2]; CMP-NulO alone, 10% serum) | % survival in 3.3% serum (N. gonorrhoeae F62 ΔlgtD [2]; CMP-NulO 20 μg/mL) [%] | % survival in 10% serum (N. gonorrhoeae F62 ΔlgtD [2]; CMP-NulO 20 μg/mL, 10% serum) [%] | % survival in 3.3% serum (N. gonorrhoeae F62 ΔlgtD [2]; CMP-NulO 100 μg/mL) [%] | % survival in 10% serum (N. gonorrhoeae F62 ΔlgtD [2]; CMP-NulO 100 μg/mL, 10% serum) [%] | fH binding to bacteria (earlier results) (purified human FH) | serum resistance / serum-mediated killing (earlier results) (N. gonorrhoeae F62 ΔlgtD [3]) | substrate for gonococcal LOS sialyltransferase (Lst) (earlier results) [4] | attenuation of N. gonorrhoeae H041 infection (N. gonorrhoeae H041)
1 | [N-]=[N+]=N[C@@H](C1O[C@](OP(=O)(O)OC[C@H]2O[C@@H](n3ccc(N)nc3=O)C(O)C2O)(C(=O)O)CC(O)[C@H]1O)[C@H](O)CO (stereo partly drawn) [CMP-KDN7N3, cytidine 5′-monophospho-3,7-dideoxy-7-azido-D-glycero-D-galacto-nonulosonic acid] | could be utilized by gonococcal LOS sialyltransferase (Lst) | resulted in serum sensitivity | 125.60 | 33.92 | 123.67 | 22.52 |  |  |  | 
2 | CO[C@H](CO)[C@@H](O)[C@@H]1O[C@@](OP(=O)(O)OC[C@H]2O[C@@H](n3ccc(N)nc3=O)[C@H](O)[C@@H]2O)(C(=O)O)C[C@H](O)[C@H]1NC(=O)CO [CMP-Neu5Gc8Me] |  |  |  |  |  |  | not enhance fH binding above levels seen with an unsialylated F62 ΔlgtD control | enhanced serum-mediated killing | can serve as substrates for gonococcal LOS sialyltransferase (Lst) | 
3 | CC(=O)N[C@H]1[C@H]([C@H](O)[C@H](O)CN=[N+]=[N-])OC(OP(=O)(O)OC[C@H]2O[C@@H](n3ccc(N)nc3=O)[C@H](O)[C@@H]2O)(C(=O)O)C[C@@H]1O (stereo partly drawn) [CMP-Neu5Ac9Az] |  |  |  |  |  |  | not enhance fH binding above levels seen with an unsialylated F62 ΔlgtD control | enhanced serum-mediated killing | can serve as substrates for gonococcal LOS sialyltransferase (Lst) | significantly attenuated
4 | CC(=O)NC1C(O)CC(OP(=O)(O)OCC2OC(n3ccc(N)nc3=O)C(O)C2O)(C(=O)O)OC1C(O)C(O)COC(C)=O (stereo not drawn) [CMP-Neu5Ac9Ac] |  |  |  |  |  |  |  | enhanced serum-mediated killing | can serve as substrates for gonococcal LOS sialyltransferase (Lst) | 
5 | Nc1ccn([C@@H]2O[C@H](COP(=O)(O)O[C@@]3(C(=O)O)C[C@H](O)[C@@H](NC(=O)CO)[C@H]([C@H](O)[C@H](O)CO)O3)[C@@H](O)[C@H]2O)c(=O)n1 [CMP-Neu5Gc] |  |  |  |  |  |  | high level of fH binding to bacteria | able to simulate the high-level serum resistance reported for CMP-Neu5Ac | can serve as substrates for gonococcal LOS sialyltransferase (Lst) | 
